Data published in patent publication US5122448A, “Assay of anti-Epstein-Barr virus nuclear antigen antibodies with synthetic polypeptides” (Scripps Clinic and Research Foundation, priority 1990, dated 1992).
Read-outs that look alike come from different tables or passages of the source. Residues, ends and D or L forms follow the SMILES beside them.

Experiments:
[1] = molecular target: human anti-EBNA antibodies; experiment: ELISA: inhibition of serum antibody binding to solid phase P62 by competing polypeptide in solution
Protocol: Anti-peptide antibody binding and inhibition studies were carried out by an enzyme-linked immunosorbent assay (ELISA) as described below.
Contact between the wells and antigen-containing solution was maintained for a predetermined time, typically 15 minutes, and at 20 degrees C., to form an antigen-coated solid phase. The solid and liquid phases were separated and the wells were washed three times with BBS.
Rabbit and human sera (body sample aliquots) were assayed for anti-polypeptide activity by adding 100 microliters of a serum diluted 1:20 in BBS per well to form a solid/liquid phase composition. Contact between the diluted sera and the antigen-coated solid phase was maintained for a predetermined time such as 1 hour, and at 20 degrees C., for an immunoreactant to form. The solid and liquid phases were separated, and the solid phase; i.e., antigen-coated, immunoreactant-containing wells, was then washed three times with BBS.

[2] = test system: EBNA; experiment: Immunoblot of WI-L2 whole cell extracts with rabbit antipeptide antisera, blocking by polypeptide; assay type: binding, Epstein-Barr virus; conditions: serum 1:10, 40 ug/ml polypeptide P62, one hour
Protocol: Exemplary receptor molecules containing antibody combining sites of this invention raised in rabbits to the polypeptides shown in Table 1 were studied using the immunoblotting procedures of Towbin, et. al., Proc. Natl. Acad. Sci., U.S.A., 76:4350-4354 (1979) and Billings, et. al., Proc. Natl. Acad. Sci., U.S.A., 80:7104-7108 (1983). Further details are provided in the Materials and Methods section (III).
Extracts of EBNA producing and non-producing (control) cells were prepared to determine if receptor molecules of this invention were useful for diagnosing EBNA expression. Cells from cultures described hereinabove were washed in phosphate-buffered saline (PBS; 150 mM NaCl, 10 mM sodium phosphate, pH 7.4) containing 0.2 mM phenylmethylsulfonyl fluoride, swollen for 5 minutes in reticulocyte standard buffer (RSB; 10 mM NaCl, 10 mM Tris-HCl, pH 7.4, 1.5 mM MgCl2, 0.2 mM phenylmethylsulfonyl fluoride), and lysed by sonication in 3-5 volumes of RBS adjusted to 0.2-0.35 molar (M) NaCl. After 30 minutes on ice, the sonicate was centrifuged at 10,000×g for 15 minutes to remove cellular debris.
Cell extracts obtained above were assayed for EBNA using human sera known to contain anti-EBNA antibodies or exemplary receptor molecules of this invention. The extracts were either concentrated by precipitation with 2 volumes of ethanol at -20 degrees C. for about 18 hours, and were then dissolved in sample buffer [SB; 10% glycerol, 2% 2-mercaptoethanol, 1% sodium dodecyl sulfate (SDS), 0.002% bromphenol blue, 40 mM Tris-HCl (pH 7.4)] or diluted 1:6 in sample buffer for SDS-polyacrylamide gel electrophoresis (SDS-PAGE). 7.5% Polyacrylamide gels were cast and run according to the procedure of Laemmli, Nature, […] (1970), applying 50 to 200 micrograms of total protein per lane. […]
Anti-peptide antibodies bound to EBNA protein were detected by reacting the blots with an indicating means. […]

[3] = Circular dichroism spectroscopy; assay type: physicochemical; conditions: 1 mg/ml in phosphate buffered saline
Protocol: The conformational properties of the polypeptides were investigated to elucidate any secondary structure that might be necessary for polypeptide immunoreaction with human anti-EBNA antibodies. The polypeptides were dissolved at a concentration of 1 mg/ml in phosphate-buffered saline (PBS). Spectra were taken using 1 ml samples in a Cary 61 spectropolarimeter (Cary Instruments, Applied Physics Corp., Monrovia, Calif.) interfaced and automated with a Digital Equipment Corporation 11/02 computer (Digital Equipment Corporation, Maynard, Mass.).

[4] = test system: anti-EBNA antibodies (IgG, IgM, IgA)
Protocol: Additional assays utilized in these studies wherein IgG to IgM ratios were determined to assess the state of EBV-induced disease were carried out as described in Smith et al., J. Infect. Dis., 154:885-889 (1986) and Geltosky et al., J. Clin Lab Analysis, 1:153-162 (1987).
The solution was thereafter discarded and the plates were blocked with 300 ul of 10 percent normal goat serum in phosphate-buffered saline (PBS) at pH 7.3. After 90 minutes of maintenance (incubation) at 37 degrees C., the wells were emptied and dried for 60 minutes at 37 degrees C.
At this time, 200 ul of 10 percent goat serum in PBS were added to the wells. A volume of 10 ul of patient specimen serum was admixed to each goat serum-containing well to form a solid/liquid phase admixture. That admixture was maintained for a time period of one hour at room temperature to permit binding of any antibodies present to the solid support and form a solid phase-bound immunoreactant containing those antibodies.
After washing five times with 350 ul of 0.05% Tween-20 [polyoxyethylene (20) sorbitan monolaurate] in PBS to effect separation of the solid and liquid phases, a solution of 200 ul of horseradish peroxidase-(HRPO-) conjugated mouse monoclonal antibody to human IgG or IgM (Ortho Diagnostic Systems, Raritan, N.J.) was admixed to each well to form a second solid/liquid phase admixture. This second solid/liquid admixture was maintained for another one hour time period to permit the enzyme-linked antibodies to bind to any solid phase-bound antibodies formed in the first solid/liquid phase admixture.
After separation of the solid and liquid phases, and washing of the solid phase five times using the Tween-20/PBS solution, above, color was developed by admixture of o-phenylenediamine (OPD; 2 mg of a citrate-buffered tablet dissolved in 3 ml of water; Pitman-Moore, Washington Crossing, N.J.) and hydrogen peroxide. The resulting solution was maintained for 30 minutes at room temperature. The reaction was stopped by admixture of 50 ul of 2N HCl, and the absorbance was determined at 490 nanometers (nm).
positive control ratio =reference absorbance value/mean absorbance of positive control.
The positive control was assigned a reference absorbance value (O.D.) of 1.0. […] The absorbance value for the controls and for each test specimen were multiplied by the positive control ratio to achieve a standardized ELISA value. Cutoff values (mean OD+SD) have been previously described [Geltosky et al. J. Clin. Lab. Analysis, 1:153-162 (1987)]. […] Absorbance values less than 0.7 were considered to represent an acute infection due to EBV [Smith et al., J Infect Dis., 154:885-889 (1986)].

[5] = acute IM Patient 1, 1 days post onset
[6] = acute IM Patient 1, 29 days post onset
[7] = acute IM Patient 1, 95 days post onset
[8] = acute IM Patient 1, 184 days post onset
[9] = acute IM Patient 1, 373 days post onset
[10] = acute IM Patient 2, 17 days post onset
[11] = acute IM Patient 2, 28 days post onset
[12] = acute IM Patient 2, 68 days post onset
[13] = acute IM Patient 2, 194 days post onset
[14] = acute IM Patient 2, 404 days post onset
[15] = acute IM Patient 8, 8 days post onset
[16] = acute IM Patient 8, 38 days post onset
[17] = acute IM Patient 8, 109 days post onset
[18] = acute IM Patient 8, 404 days post onset
[19] = acute IM Patient 11, 2 days post onset
[20] = acute IM Patient 11, 23 days post onset
[21] = acute IM Patient 11, 372 days post onset
[22] = acute IM Patient 11, 1,519 days post onset

Compound: C[C@H](N)C(=O)NCC(=O)N[C@@H](C)C(=O)NCC(=O)NCC(=O)NCC(=O)N[C@@H](C)C(=O)NCC(=O)NCC(=O)N[C@@H](C)C(=O)NCC(=O)N[C@@H](C)C(=O)NCC(=O)NCC(=O)NCC(=O)N[C@@H](C)C(=O)NCC(=O)NCC(=O)N[C@@H](C)C(=O)NCC(=O)O [Polypeptide P62, H--Ala--Gly--Ala--Gly--Gly--Gly--Ala--Gly--Gly--Ala--Gly--Ala--Gly--Gly--Gly--Ala--Gly--Gly--Ala--Gly--OH] (H-AGAGGGAGGAGAGGGAGGAG-OH)
- Concentration of Competing Polypeptides Providing 50% Inhibition of Antibody Binding to Peptide P62 ([1]; serum N6): 0.6 micrograms per milliliter
- Concentration of Competing Polypeptides Providing 50% Inhibition of Antibody Binding to Peptide P62 ([1]; serum TJ): 0.05 micrograms per milliliter
- Concentration of Competing Polypeptides Providing 50% Inhibition of Antibody Binding to Peptide P62 ([1]; serum VM): 0.3 micrograms per milliliter
- Recognition of EBNA by anti-P62 serum after preincubation with polypeptide [2]: inhibited
- Conformation by circular dichroism spectrum [3]: relatively stable secondary structure
- IgM anti-peptide P62 antibodies during acute phase of CMV disease ([4]; 10 patients with CMV-IM): All 10 patients showed a pronounced increase
- Sera positive for NPC in IgA anti-P62 assay ([4]; 13 sera from NPC patients): 10 of 13
- IgA level ([4]; Heterophil-Positive Sera marked with footnote 2 (samples 2 and 6)): > 0.300 OD 490
- IgG OD 490 [4, 5]: 0.011 OD 490
- IgM OD 490 [4, 5]: 0.189 OD 490
- Ratio IgG/IgM [4, 5]: 0.058
- IgG OD 490 [4, 6]: 0.023 OD 490
- IgM OD 490 [4, 6]: 0.527 OD 490
- Ratio IgG/IgM [4, 6]: 0.043
- IgG OD 490 [4, 7]: 0.162 OD 490
- IgM OD 490 [4, 7]: 0.329 OD 490
- Ratio IgG/IgM [4, 7]: 0.492
- IgG OD 490 [4, 8]: 0.552 OD 490
- IgM OD 490 [4, 8]: 0.245 OD 490
- Ratio IgG/IgM [4, 8]: 2.253
- IgG OD 490 [4, 9]: 0.858 OD 490
- IgM OD 490 [4, 9]: 0.152 OD 490
- Ratio IgG/IgM [4, 9]: 5.644
- IgG OD 490 [4, 10]: 0.125 OD 490
- IgM OD 490 [4, 10]: 0.682 OD 490
- Ratio IgG/IgM [4, 10]: 0.183
- IgG OD 490 [4, 11]: 0.167 OD 490
- IgM OD 490 [4, 11]: 0.674 OD 490
- Ratio IgG/IgM [4, 11]: 0.247
- IgG OD 490 [4, 12]: 0.112 OD 490
- IgM OD 490 [4, 12]: 0.459 OD 490
- Ratio IgG/IgM [4, 12]: 0.244
- IgG OD 490 [4, 13]: 0.233 OD 490
- IgM OD 490 [4, 13]: 0.596 OD 490
- Ratio IgG/IgM [4, 13]: 0.390
- IgG OD 490 [4, 14]: 0.674 OD 490
- IgM OD 490 [4, 14]: 0.665 OD 490
- Ratio IgG/IgM [4, 14]: 1.013
- IgG OD 490 [4, 15]: 0.319 OD 490
- IgM OD 490 [4, 15]: 1.046 OD 490
- Ratio IgG/IgM [4, 15]: 0.305
- IgG OD 490 [4, 16]: 0.165 OD 490
- IgM OD 490 [4, 16]: 0.696 OD 490
- Ratio IgG/IgM [4, 16]: 0.237
- IgG OD 490 [4, 17]: 0.141 OD 490
- IgM OD 490 [4, 17]: 0.603 OD 490
- Ratio IgG/IgM [4, 17]: 0.234
- IgG OD 490 [4, 18]: 1.304 OD 490
- IgM OD 490 [4, 18]: 0.562 OD 490
- Ratio IgG/IgM [4, 18]: 2.320
- IgG OD 490 [4, 19]: 0.005 OD 490
- IgM OD 490 [4, 19]: 0.055 OD 490
- Ratio IgG/IgM [4, 19]: 0.091
- IgG OD 490 [4, 20]: 0.016 OD 490
- IgM OD 490 [4, 20]: 0.702 OD 490
- Ratio IgG/IgM [4, 20]: 0.023
- IgG OD 490 [4, 21]: 0.878 OD 490
- IgM OD 490 [4, 21]: 0.643 OD 490
- Ratio IgG/IgM [4, 21]: 1.365
- IgG OD 490 [4, 22]: 1.079 OD 490
- IgM OD 490 [4, 22]: 0.199 OD 490
- Ratio IgG/IgM [4, 22]: 5.422
- IgG/IgM ratio ([4]; patient five (EBV-IM), May 1985 specimen, late convalescent phase): exceeded 0.7
- IgG/IgM ratio ([4]; patient one (CMV-IM), during the acute illness): 0.661
- IgG/IgM ratio ([4]; patient one (CMV-IM), pre-illness samples): ~2
- Patients scored positive in the EBNA P62 ELISA by the ratio analysis ([4]; ten patients with acute CMV-IM infection): eight of ten
